These results are taken from patent publication US6497898B1, “Surfactant, and an emulsion-type cosmetic composition and a lipsome containing said surfactant” (Kanebo LTD, priority 1993, dated 2002).

This data set deals with skin. Briefly: Safety test: skin irritation patch test of the surfactants. To be noted: Sample (solution) per table head; patch on 20 subjects for 24 hours, evaluated 24 hours after removing; clear erythema = positive. The class given is in vivo. Here is the method: As a safety test on the above trehalose-6-fatty acid esters, irritation to skin was examinaed in accordance with the following procedures.
[…] Irritaion was evaluated 24 hours after removing the patch. […] Sodium laurylphosphate used as a control is a surfactant which is usually used in shampoos, body shampoos and the like.
On to `CCCCCCCCCCCCOP(=O)([O-])O.[Na+]` [Monosodium lauryl phosphate, reference compound], for which the “Irritation to skin, positive, %” value is recorded as 0.5%.
As for `CCCCCCCCCCCC(=O)OCC1OC(OC2OC(CO)C(O)C(O)C2O)C(O)C(O)C1O` (stereo not shown) [6-Lauroyl-trehalose, 6-lauroyl-trehalose], the “Irritation to skin, positive, %” value is listed as 0%.
Take `C=CCCCCCCCCC(=O)OCC1OC(OC2OC(CO)C(O)C(O)C2O)C(O)C(O)C1O` (stereo not shown) [6-(10-Undecylenyl)-trehalose, 6-(10-undecylenyl)-trehalose]: the “Irritation to skin, positive, %” value amounted to 0%.
In the case of `CCCCCCCCCCCCCCCCCC(=O)OC[C@H]1O[C@H](O[C@H]2O[C@H](CO)[C@@H](O)[C@H](O)[C@H]2O)[C@H](O)[C@@H](O)[C@@H]1O` [6-Stearoyl-trehalose, 6-stearoyl-trehalose] it was 0%.
